The test system of this experiment is L1210. As to the kind of experiment: Capacity to inhibit tumor cells in vitro using L1210 murine leukemia cells. The note with it: Mus musculus. The format is functional, cell-based.

One may read the IC50 as the midpoint of a concentration-inhibition curve. A higher IC50 goes with weaker potency in that assay.

In turn, `NC1=NC(=O)C2N=NC([C@@H]3O[C@H](CO)[C@@H](O)[C@H]3O)=C2O1` (some centres not stated) returned a concentration for half-maximal inhibition (IC50) of 100 µM.

Molecule `O=c1[nH]c(=O)c2[nH]nc([C@@H]3O[C@H](CO)[C@@H](O)[C@H]3O)c2o1` yielded a 50% inhibitory concentration (IC50) of 0.2 µM. This IC50 is about 500-fold lower than that of the molecule before.

(Values after ChEMBL document CHEMBL1125272, “Synthetic approaches to the guanosine and xanthosine analogues 5-amino-3-beta-D-ribofuranosylpyrazolo[3,4-e][1,3]oxazin-7-one and 3-beta-D-ribofuranosylpyrazolo[3,4-e][1,3]oxazine-5,7-dione and studies of their antitumor potential” (J Med Chem, 1991).)
